Test results: patent US20250281479A1, “TREATMENT OF CAVERNOUS ANGIOMAS WITH A 4-SUBSTITUTED PIPERIDINE DERIVATIVE” (Neurelis, Inc., priority 2024, published 2025)
Read-outs that look alike come from different tables or passages of the source.

Assays:
[1] = system: mouse, monkey, and human hepatocytes; assay: incubation with hepatocytes (mouse, monkey, human); type: in vitro ADME
Protocol: (§1) Exposure to NRL-2017 was similar or greater (up to 5-fold) than that to NRL-1049 in rats when dosed once a day (QD). In monkeys, exposure to NRL-2017 was also greater (up to 33-fold) than that to NRL-1049. When rats were dosed twice a day (BID) for 14 days, there was a decrease in formation of NRL-2017 with exposure to NRL-2017 lower than that of NRL-1049 (ratio as low as 0.06). […] NRL-1049 bound to human serum albumin and human alpha1-acid glycoprotein. […] There was also inhibition of P-glycoprotein (P-gp) (only CACO-2 cells), organic anion transporting polypeptides (OATP) OATP1B1, OATP1B3 and OAT3 (IC50, >100 μM), but no effect on P-gp (MDCK2 cells), breast cancer resistance protein (BCRP), bile salt export pump (BSEP), or MATE2-K. NRL-1049 is a substrate for P-gp, not BCRP. […] This conclusion will be revisited when human pharmacokinetic (PK) data becomes available.

[2] = tissue distribution and excretion; type: in vivo
Protocol: as §1

cytochrome P450 (CYP) = assay: metabolite or time-dependent CYP inhibition; type: in vitro ADME
Protocol: as §1

[3] = target: T1, P-glycoprotein (P-gp) (only CACO-2 cells) (Homo sapiens, UniProt P08183); assay: transporter inhibition; type: in vitro ADME
T1 construct: endogenous in cells; host or cells: CACO-2 cells
Protocol: as §1

MATE1 = MATE1 (Homo sapiens, UniProt Q96FL8); assay: transporter inhibition; type: in vitro ADME; details: one range printed for OAT1, OCT1, OCT2 and MATE1 together
Protocol: as §1

OATP1B1 = OATP1B1 (Homo sapiens, UniProt Q9Y6L6); assay: transporter inhibition; type: in vitro ADME
Sequence of OATP1B1 (Q9Y6L6 whole entry): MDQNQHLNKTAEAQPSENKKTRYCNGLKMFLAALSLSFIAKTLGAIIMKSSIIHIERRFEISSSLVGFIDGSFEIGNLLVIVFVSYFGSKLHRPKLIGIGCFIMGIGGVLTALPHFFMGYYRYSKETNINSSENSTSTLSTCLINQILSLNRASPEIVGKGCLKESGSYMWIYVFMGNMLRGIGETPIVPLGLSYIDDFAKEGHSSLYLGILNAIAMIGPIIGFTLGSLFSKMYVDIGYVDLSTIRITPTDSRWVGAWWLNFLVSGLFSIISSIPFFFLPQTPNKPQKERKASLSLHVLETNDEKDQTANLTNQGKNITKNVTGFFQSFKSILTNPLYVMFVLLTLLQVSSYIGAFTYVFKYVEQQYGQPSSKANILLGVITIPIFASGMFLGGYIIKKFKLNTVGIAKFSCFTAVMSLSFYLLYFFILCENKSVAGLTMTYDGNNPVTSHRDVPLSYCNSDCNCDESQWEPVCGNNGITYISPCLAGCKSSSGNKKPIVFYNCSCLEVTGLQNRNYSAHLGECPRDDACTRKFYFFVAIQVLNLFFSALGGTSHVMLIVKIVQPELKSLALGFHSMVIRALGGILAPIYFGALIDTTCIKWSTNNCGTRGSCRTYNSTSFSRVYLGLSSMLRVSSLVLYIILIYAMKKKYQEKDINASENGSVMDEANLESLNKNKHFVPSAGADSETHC
Protocol: as §1

OCT2 = OCT2 (Homo sapiens, UniProt O15244); assay: transporter inhibition; type: in vitro ADME; details: one range printed for OAT1, OCT1, OCT2 and MATE1 together
Sequence of OCT2 (O15244 whole entry): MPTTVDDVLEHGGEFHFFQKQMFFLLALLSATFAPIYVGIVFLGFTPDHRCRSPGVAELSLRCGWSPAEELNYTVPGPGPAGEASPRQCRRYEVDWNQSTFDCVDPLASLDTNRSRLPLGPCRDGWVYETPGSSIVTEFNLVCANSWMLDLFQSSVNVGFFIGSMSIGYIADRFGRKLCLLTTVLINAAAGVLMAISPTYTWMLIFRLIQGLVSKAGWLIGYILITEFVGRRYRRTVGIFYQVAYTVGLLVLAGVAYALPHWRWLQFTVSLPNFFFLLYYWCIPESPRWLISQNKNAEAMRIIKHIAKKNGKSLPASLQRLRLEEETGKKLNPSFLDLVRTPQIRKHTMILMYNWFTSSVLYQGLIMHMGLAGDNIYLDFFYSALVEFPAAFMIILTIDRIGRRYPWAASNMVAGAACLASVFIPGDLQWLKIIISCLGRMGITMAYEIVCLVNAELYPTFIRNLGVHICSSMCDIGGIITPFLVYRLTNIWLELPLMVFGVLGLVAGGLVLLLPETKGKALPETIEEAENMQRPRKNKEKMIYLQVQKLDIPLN
Protocol: as §1

P-gp (MDCK2 cells) = target: T2, P-gp (MDCK2 cells) (Homo sapiens, UniProt P08183); assay: transporter inhibition; type: in vitro ADME
T2 construct: host or cells: MDCK2 cells
Protocol: as §1

OAT3 = OAT3 (Homo sapiens, UniProt Q8TCC7); assay: transporter inhibition; type: in vitro ADME
Sequence of OAT3 (Q8TCC7 whole entry): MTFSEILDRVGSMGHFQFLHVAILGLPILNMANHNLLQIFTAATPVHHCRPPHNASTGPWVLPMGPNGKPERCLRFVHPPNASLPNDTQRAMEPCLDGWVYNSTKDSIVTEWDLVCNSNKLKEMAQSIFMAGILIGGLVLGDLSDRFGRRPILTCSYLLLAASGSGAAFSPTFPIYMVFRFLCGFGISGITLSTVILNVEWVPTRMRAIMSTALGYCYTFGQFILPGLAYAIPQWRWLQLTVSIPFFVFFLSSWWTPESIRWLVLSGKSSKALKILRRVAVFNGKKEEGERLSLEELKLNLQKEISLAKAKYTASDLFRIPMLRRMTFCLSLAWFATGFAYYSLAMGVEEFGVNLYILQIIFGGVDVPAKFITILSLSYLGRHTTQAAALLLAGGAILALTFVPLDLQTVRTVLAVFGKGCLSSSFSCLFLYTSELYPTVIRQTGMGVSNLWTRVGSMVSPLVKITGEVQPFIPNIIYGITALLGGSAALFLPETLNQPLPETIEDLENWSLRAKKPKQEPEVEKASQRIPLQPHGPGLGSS
Protocol: as §1

OAT1 = OAT1 (Homo sapiens, UniProt Q4U2R8); assay: transporter inhibition; type: in vitro ADME; details: one range printed for OAT1, OCT1, OCT2 and MATE1 together
Sequence of OAT1 (Q4U2R8 whole entry): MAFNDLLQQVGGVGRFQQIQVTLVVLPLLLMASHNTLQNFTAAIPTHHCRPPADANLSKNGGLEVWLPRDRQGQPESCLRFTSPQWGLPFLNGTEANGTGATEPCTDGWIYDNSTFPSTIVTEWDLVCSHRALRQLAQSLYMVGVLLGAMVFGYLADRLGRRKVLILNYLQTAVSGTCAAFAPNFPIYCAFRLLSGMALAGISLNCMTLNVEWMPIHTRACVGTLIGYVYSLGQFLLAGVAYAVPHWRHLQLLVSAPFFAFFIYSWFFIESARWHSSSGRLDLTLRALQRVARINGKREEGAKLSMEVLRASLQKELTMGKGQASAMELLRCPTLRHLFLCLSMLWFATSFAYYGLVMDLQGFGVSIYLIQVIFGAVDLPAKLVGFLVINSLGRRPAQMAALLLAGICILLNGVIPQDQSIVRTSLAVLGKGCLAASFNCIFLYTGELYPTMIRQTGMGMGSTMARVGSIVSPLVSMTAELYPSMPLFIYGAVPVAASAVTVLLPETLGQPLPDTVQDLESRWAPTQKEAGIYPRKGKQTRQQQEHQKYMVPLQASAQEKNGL
Protocol: as §1

OATP1B3 = OATP1B3 (Homo sapiens, UniProt Q9NPD5); assay: transporter inhibition; type: in vitro ADME
Sequence of OATP1B3 (Q9NPD5 whole entry): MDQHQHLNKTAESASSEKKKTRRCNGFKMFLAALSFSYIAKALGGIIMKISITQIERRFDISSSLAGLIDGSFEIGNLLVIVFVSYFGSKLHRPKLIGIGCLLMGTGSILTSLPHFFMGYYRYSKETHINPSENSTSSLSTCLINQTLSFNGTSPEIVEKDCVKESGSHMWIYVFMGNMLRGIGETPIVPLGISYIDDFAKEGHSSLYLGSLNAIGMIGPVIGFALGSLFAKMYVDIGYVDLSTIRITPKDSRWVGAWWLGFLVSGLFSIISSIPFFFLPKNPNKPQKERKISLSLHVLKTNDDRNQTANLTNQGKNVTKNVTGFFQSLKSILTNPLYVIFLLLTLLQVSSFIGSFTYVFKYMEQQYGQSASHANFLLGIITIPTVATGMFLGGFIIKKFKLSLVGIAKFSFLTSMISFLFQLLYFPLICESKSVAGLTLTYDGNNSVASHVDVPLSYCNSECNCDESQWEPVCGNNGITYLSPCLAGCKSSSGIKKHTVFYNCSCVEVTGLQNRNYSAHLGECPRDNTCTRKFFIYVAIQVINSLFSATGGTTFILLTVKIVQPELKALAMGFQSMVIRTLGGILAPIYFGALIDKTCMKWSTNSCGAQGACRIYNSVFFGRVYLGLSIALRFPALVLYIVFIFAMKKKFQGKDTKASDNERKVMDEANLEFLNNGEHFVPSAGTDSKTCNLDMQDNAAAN
Protocol: as §1

[4] = target: bile salt export pump (BSEP) (Homo sapiens, UniProt O95342); assay: transporter inhibition; type: in vitro ADME
Sequence of bile salt export pump (BSEP) (O95342 whole entry): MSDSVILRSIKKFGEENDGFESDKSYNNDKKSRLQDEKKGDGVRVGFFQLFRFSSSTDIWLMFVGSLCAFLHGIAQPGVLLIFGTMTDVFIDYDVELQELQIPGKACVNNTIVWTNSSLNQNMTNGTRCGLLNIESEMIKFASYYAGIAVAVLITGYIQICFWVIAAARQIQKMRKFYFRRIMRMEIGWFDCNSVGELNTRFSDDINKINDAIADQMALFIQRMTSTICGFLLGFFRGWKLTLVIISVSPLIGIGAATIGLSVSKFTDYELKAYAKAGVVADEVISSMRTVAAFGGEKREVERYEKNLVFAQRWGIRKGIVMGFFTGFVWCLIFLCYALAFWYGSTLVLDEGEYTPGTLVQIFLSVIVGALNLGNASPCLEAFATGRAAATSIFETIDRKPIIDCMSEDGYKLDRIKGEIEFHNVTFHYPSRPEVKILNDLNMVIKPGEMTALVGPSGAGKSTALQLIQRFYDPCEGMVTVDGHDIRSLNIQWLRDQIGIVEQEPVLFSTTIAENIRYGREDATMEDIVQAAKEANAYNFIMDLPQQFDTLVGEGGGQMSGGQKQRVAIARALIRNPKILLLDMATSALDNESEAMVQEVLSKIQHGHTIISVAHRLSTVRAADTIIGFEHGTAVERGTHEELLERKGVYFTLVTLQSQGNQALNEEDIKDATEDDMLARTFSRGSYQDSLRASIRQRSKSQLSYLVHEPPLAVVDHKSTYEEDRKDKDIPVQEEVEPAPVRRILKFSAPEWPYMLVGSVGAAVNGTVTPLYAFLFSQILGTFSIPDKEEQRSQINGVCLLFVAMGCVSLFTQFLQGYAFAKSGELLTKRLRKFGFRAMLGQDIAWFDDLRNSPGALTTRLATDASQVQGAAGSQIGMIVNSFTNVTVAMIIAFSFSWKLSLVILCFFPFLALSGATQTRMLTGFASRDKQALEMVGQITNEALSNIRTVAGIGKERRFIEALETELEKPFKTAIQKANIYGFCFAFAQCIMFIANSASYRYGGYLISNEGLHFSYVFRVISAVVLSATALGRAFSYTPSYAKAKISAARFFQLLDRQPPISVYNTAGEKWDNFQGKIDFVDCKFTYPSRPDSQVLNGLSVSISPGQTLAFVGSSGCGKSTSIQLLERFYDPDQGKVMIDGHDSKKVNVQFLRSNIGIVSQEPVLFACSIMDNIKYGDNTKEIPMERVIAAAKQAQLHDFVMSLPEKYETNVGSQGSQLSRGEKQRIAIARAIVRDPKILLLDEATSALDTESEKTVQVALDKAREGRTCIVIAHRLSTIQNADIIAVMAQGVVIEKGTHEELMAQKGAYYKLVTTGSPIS
Protocol: as §1

OCT1 = OCT1 (Homo sapiens, UniProt O15245); assay: transporter inhibition; type: in vitro ADME; details: one range printed for OAT1, OCT1, OCT2 and MATE1 together
Sequence of OCT1 (O15245 whole entry): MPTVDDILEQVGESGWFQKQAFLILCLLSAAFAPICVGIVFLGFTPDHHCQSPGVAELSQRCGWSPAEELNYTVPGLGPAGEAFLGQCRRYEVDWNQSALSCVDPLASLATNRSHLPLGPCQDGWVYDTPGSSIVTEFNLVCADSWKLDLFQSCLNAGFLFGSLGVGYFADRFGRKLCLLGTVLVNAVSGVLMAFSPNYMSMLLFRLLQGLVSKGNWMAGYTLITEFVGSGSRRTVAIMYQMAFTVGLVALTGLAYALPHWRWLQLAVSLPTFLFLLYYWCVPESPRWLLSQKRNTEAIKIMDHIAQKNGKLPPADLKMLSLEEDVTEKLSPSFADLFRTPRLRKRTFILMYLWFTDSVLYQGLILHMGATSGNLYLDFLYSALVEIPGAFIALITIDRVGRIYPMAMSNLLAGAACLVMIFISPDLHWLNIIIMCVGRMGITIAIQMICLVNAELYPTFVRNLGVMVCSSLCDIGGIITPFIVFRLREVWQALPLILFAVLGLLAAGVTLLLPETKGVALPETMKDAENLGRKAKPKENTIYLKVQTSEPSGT
Protocol: as §1

[5] = target: breast cancer resistance protein (BCRP) (Homo sapiens, UniProt Q9UNQ0); assay: transporter inhibition; type: in vitro ADME
Protocol: as §1

CYP2B2 = assay: CYP expression in hepatocyte culture; type: in vitro ADME; details: at concentrations as low as 3.2 μM
Protocol: as §1

[6] = system: human alpha1-acid glycoprotein; assay: binding to human alpha1-acid glycoprotein; type: in vitro ADME
Protocol: as §1

rat hepatocytes = assay: incubation with rat hepatocytes; type: in vitro ADME; details: two metabolites formed, NRL-2017 and an N-oxide
Protocol: as §1

CYP2D6 = CYP2D6 (Homo sapiens, UniProt P10635); assay: CYP inhibition; type: in vitro ADME; details: read-out: half-maximal inhibitory concentration (IC50)
Protocol: as §1

CYP3A4/5 = assay: CYP inhibition; type: in vitro ADME; details: human
Protocol: as §1

CYP2C8 = CYP2C8 (Homo sapiens, UniProt P10632); assay: CYP inhibition; type: in vitro ADME; details: read-out: half-maximal inhibitory concentration (IC50)
Protocol: as §1

For C[C@@H](N)C1CCN(S(=O)(=O)c2cccc3cnccc23)CC1 [NRL-1049], the clearance in hepatocytes [1] was “moderate to high clearance”, the tissue distribution ([2]; brain, aorta, inferior vena cava) was “distributed to brain and vascular tissue” and the excretion ([2]; in vivo) was “excreted in urine”. For the same molecule, the “metabolite or time-dependent inhibition” value (cytochrome P450 (CYP)) was “no metabolite or time-dependent inhibition”, the IC50 [3] was over 100 µM and the IC50 (MATE1) was 8.54 to 66.2 µM. The IC50 (OATP1B1) was over 100 µM, the IC50 (OCT2) was 8.54 to 66.2 µM and the effect on transporter (P-gp (MDCK2 cells)) was “no effect”. The IC50 (OAT3) was over 100 µM, the IC50 (OAT1) was 8.54 to 66.2 µM and the IC50 (OATP1B3) was over 100 µM. The effect on transporter [4] was “no effect”, the IC50 (OCT1) was 8.54 to 66.2 µM and the effect on transporter [5] was “no effect”. The “reduced expression of CYP2B2” value (CYP2B2) was 0.5 fold, the “binding to human alpha1-acid glycoprotein” value [6] was “bound” and the “clearance rate in hepatocytes” value (rat hepatocytes) was “moderate”. The IC50 (CYP2D6) was 0.18 µM, the IC50 (CYP3A4/5; first of the two values printed 23/110, read-out: half-maximal inhibitory concentration (IC50)) was 23 µM and the IC50 (CYP3A4/5; second of the two values printed 23/110, read-out: half-maximal inhibitory concentration (IC50)) was 110 µM. For the same molecule, the IC50 (CYP2C8) was 160 µM.
